Data published in paper PMC10028790 (bioRxiv, 2023).
“And” between values parts separate entries of the source, which are not always exact repeats. Equal entries are not always repeated. “Also recorded” adds a separate entry of the source. Where two headings read alike, the source gives them in different places.

Experiments:
GRABeCB2.0 [1] = target: T1, GRABeCB2.0 (Homo sapiens, UniProt P21554); experiment: cell-based; conditions: for Effect on GRABeCB2.0 fluorescent signal: products of 2-AG hydrolysis
CB1R = conditions: cited from earlier work
GRABeCB2.0 [2] = target: T1, GRABeCB2.0; experiment: cell-based; format: cell-based
[3] = adult mice, intraperitoneal 5 mg/kg; ref 44;45; cited from earlier work
[4] = applied at a concentration that approaches the EC50
[5] = read-out: EC50 for activation of CB1Rs
[6] = concentration-dependent responses
[7] = read-out: EC50, potency at CB1R

CCCCC/C=C\C/C=C\C/C=C\C/C=C\CCCC(=O)OCC(O)CO (stereo not drawn) [1-AG, 1-arachidonoylglycerol]
Antagonism of agonist response by SR1 100 nM (GRABeCB2.0 [1]): strongly antagonized | Antagonism of agonist response by SR1 300 nM (GRABeCB2.0 [1]): strongly antagonized | EC50 (GRABeCB2.0 [1]): 1800 nM | Effect of SR1 pre-treatment on agonist-stimulated GRABeCB2.0 activation (GRABeCB2.0 [1]): reduced | Initial inflection time point (GRABeCB2.0 [1]): ≤ 1 min | Kinetics of fluorescent signal increase (GRABeCB2.0 [1]): rapid increases in fluorescent signal that were followed by slow decays | EC50 (CB1R; read-out: EC50 at CB1R, ref 29;40;41): 1000 to 1900 nM

CCCCC/C=C\C/C=C\C/C=C\C/C=C\CCCC(=O)OC(CO)CO [2-AG, 2-arachidonoylglycerol]
Antagonism of agonist response by SR1 100 nM (GRABeCB2.0 [1]): partial antagonized | Effect of SR1 pre-treatment on agonist-stimulated GRABeCB2.0 activation (GRABeCB2.0 [1]): significantly reduced | GRABeCB2.0 fluorescent signal at 0 sec over basal (GRABeCB2.0 [1]; 2-AG 10 nM): 0.19 ΔF/F0 | Initial inflection point (GRABeCB2.0 [1]; 2-AG 10 nM): 0.66 min | GRABeCB2.0 fluorescent signal at 0 sec over basal (GRABeCB2.0 [1]; 2-AG 100 nM): 0.96 ΔF/F0 | Initial inflection point (GRABeCB2.0 [1]; 2-AG 100 nM): 0.33 min | Inflection point (GRABeCB2.0 [1]; 2-AG 3 μM (strongest response)): ≈ 0.66 min | Kinetics of fluorescent signal increase (GRABeCB2.0 [1]; [4]): rapid increases in fluorescent signal that were followed by slow decays | EC50 (CB1R; read-out: EC50, reported potency at CB1R): […] | EC50 (CB1R; [5]): […] | Antagonism response: t (decay following SR1 treatment) (GRABeCB2.0 [2]): 42.7 s | Decay of agonist response antagonized by SR1 (GRABeCB2.0 [2]): 43 s | Maximal response: peak (GRABeCB2.0 [2]; 2-AG 1 μM, AEA 10 μM, CP 1 μM): 2.5 DF/F0 | Overall response (area under the curve) (GRABeCB2.0 [2]; 2-AG 1 μM, AEA 10 μM, CP 1 μM): 649 | Emax (GRABeCB2.0 [2]; HEK293, read-out: Peak response greater than the CP maximal response): 47 to 58% | Initial response: slope (GRABeCB2.0 [2]; slope of fluorescent signal increase within first 20 sec after start of agonist, 2-AG 1 μM, AEA 10 μM, CP 1 μM): 6.6 × 10^−2 DF/F0/sec

CCCCC/C=C\C/C=C\CCCCCCCC(=O)OC(CO)CO [2-LG, 2-linoleoylglycerol]
Antagonism of agonist response by SR1 100 nM (GRABeCB2.0 [1]): partial antagonized | EC50 (GRABeCB2.0 [1]): 1500 nM | Effect of SR1 pre-treatment on agonist-stimulated GRABeCB2.0 activation (GRABeCB2.0 [1]): reduced | Kinetics of fluorescent signal increase (GRABeCB2.0 [1]; [4]): rapid increases in fluorescent signal that were followed by slow decays | Initial inflection time point (GRABeCB2.0 [1]; [6]): ≤ 1 min | EC50 (CB1R; read-out: EC50, partial activation of CB1R, ref 11;12): 16600 nM | EC50 (CB1R; read-out: EC50 to activate CB1R, discussion, no reference given): ~25000 nM

CCCCCCCC/C=C\CCCCCCCC(=O)OC(CO)CO [2-OG, 2-oleoylglycerol]
Antagonism of agonist response by SR1 100 nM (GRABeCB2.0 [1]): strongly antagonized | Antagonism of agonist response by SR1 300 nM (GRABeCB2.0 [1]): strongly antagonized | EC50 (GRABeCB2.0 [1]): 1000 nM | Effect of SR1 pre-treatment on agonist-stimulated GRABeCB2.0 activation (GRABeCB2.0 [1]): reduced | Kinetics of fluorescent signal increase (GRABeCB2.0 [1]; [4]): rapid increases in fluorescent signal that were followed by slow decays | Initial inflection time point (GRABeCB2.0 [1]; [6]): ≤ 1 min

CCCCC/C=C\C/C=C\C/C=C\C/C=C\CCCC(=O)NCCO [AEA, arachidonoyl ethanolamine]
EC50 (CB1R; [7]): 69 to 276 nM | EC50 (CB1R; [5]): 10 to 100 nM

C=C(C)[C@@H]1CCC(C)=C[C@H]1c1c(O)cc(CCCCC)cc1O [CBD, Cannabidiol]
Effect on basal GRABeCB2.0 fluorescent signal (GRABeCB2.0 [1]; CBD 0.1 nM to 3 μM (legend: 100 pM-10 μM)): did not affect; also recorded: does not modulate; also recorded: did not significantly modulate | Reduction of 2-AG-induced increase in GRABeCB2.0 fluorescent signal (GRABeCB2.0 [1]; at 1 μM): 26%

CCCCCCC(C)(C)c1ccc([C@@H]2C[C@H](O)CC[C@H]2CCCO)c(O)c1 [CP]
Antagonism of agonist response by SR1 100 nM (GRABeCB2.0 [1]): partial antagonized | Antagonism of agonist response by SR1 300 nM (GRABeCB2.0 [1]): more than 80% | Effect of SR1 pre-treatment on agonist-stimulated GRABeCB2.0 activation (GRABeCB2.0 [1]): significantly reduced | Initial inflection time point (GRABeCB2.0 [1]): ≤ 1.33 min | Kinetics of fluorescent signal increase (GRABeCB2.0 [1]): progressive increases in fluorescent signal that did not reach peak response within 5 min | Maximal GRABeCB2.0 response as percent of the 2-AG response (GRABeCB2.0 [1]): 71% | EC50 (CB1R; [7]): […] | Antagonism response: t (decay following SR1 treatment) (GRABeCB2.0 [2]): 24.3 s | Decay of agonist response antagonized by SR1 (GRABeCB2.0 [2]): 24 s | Initial response: slope (GRABeCB2.0 [2]): 4.5 × 10^−2 DF/F0/sec | Maximal response: peak (GRABeCB2.0 [2]): 1.7 DF/F0

CCCCC/C=C\C/C=C\C/C=C\C/C=C\CCCC(=O)O [arachidonic acid]
Effect on GRABeCB2.0 fluorescent signal (GRABeCB2.0 [1]): did not influence

OCC(O)CO [glycerol]
Effect on GRABeCB2.0 fluorescent signal (GRABeCB2.0 [1]): did not influence

CCCCCc1cc(O)c2c(c1)OC(C)(C)[C@@H]1CCC(C)=C[C@@H]21 [Δ^9-THC, Δ^9-tetrahydrocannabinol]
THC in mouse brain [3]: ≈ 10 ng/ml and 31.8 nM
